According to PubChem BioAssay AID248 (DTP/NCI, 2004):
“And” between values parts separate entries of the source, which are not always exact repeats. Equal values may be shown once. Toxic doses and inconclusive results are not listed. Cut-off read from the data, not from the text of the source: active = T/C of 150% or more; inactive = T/C below 125%.

Tested on: L1210 leukemia ip in BDF1 mice, survival T/C
Assay: NCI In Vivo Anticancer Drug Screen. Data for tumor model L1210 Leukemia (intraperitoneal) in B6D2F1 (BDF1) mice
Settings: endpoint: mean survival time, higher = longer survival
Method in brief: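 Survival endpoint. Drug-treated group vs vehicle group, expressed as T divided by C. Tumor passaged by transplantation.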

[1] = dose: 100.0 mg/kg/injection, schedule: Q01DX001 (ip), vehicle: saline
[2] = dose: 200.0 mg/kg/injection, schedule: Q01DX001 (ip), vehicle: saline
[3] = dose: 100.0 mg/kg/injection, schedule: Q01DX001 (ip), vehicle: Klucel (hydroxypropylcellulose) (HPC)
[4] = dose: 200.0 mg/kg/injection, schedule: Q01DX001 (ip), vehicle: Klucel (hydroxypropylcellulose) (HPC)
[5] = dose: 400.0 mg/kg/injection, schedule: Q01DX001 (ip), vehicle: Klucel (hydroxypropylcellulose) (HPC)
[6] = dose: 100.0 mg/kg/injection, schedule: Q01DX009 (ip), vehicle: Klucel (hydroxypropylcellulose) (HPC)
[7] = dose: 100.0 mg/kg/injection, schedule: Q01DX001 (ip), vehicle: saline with Tween-80
[8] = dose: 100.0 mg/kg/injection, schedule: Q01DX009 (ip), vehicle: saline with Tween-80
[9] = dose: 200.0 mg/kg/injection, schedule: Q01DX001 (ip), vehicle: saline with Tween-80
[10] = dose: 200.0 mg/kg/injection, schedule: Q01DX009 (ip), vehicle: saline with Tween-80

Measured: T/C

NC(=S)N/N=C/c1ccc2ccccc2c1
inactive: dose: 50.0 mg/kg/injection, schedule: Q01DX001 (ip), vehicle: saline 107 % of control | [1] 107 % of control | [2] 107 % of control | dose: 400.0 mg/kg/injection, schedule: Q01DX001 (ip), vehicle: saline 116 % of control

O=C1CC2(CCN(Cc3ccccc3)CC2)C(=O)N1N1CCCC1
inactive: [3] 91 % of control | [4] 88 % of control | [5] 89 % of control

CCOC(=O)C(O)(C(=O)OCC)c1ccccc1
inactive: dose: 100.0 mg/kg/injection, schedule: Q01DX001 (ip), vehicle: other 97 % of control | dose: 200.0 mg/kg/injection, schedule: Q01DX001 (ip), vehicle: other 102 % of control | dose: 400.0 mg/kg/injection, schedule: Q01DX001 (ip), vehicle: other 103 % of control

C(=N\N(c1ccccc1)c1ccccc1)/c1ccc(/C=N/N(c2ccccc2)c2ccccc2)cc1
inactive: [6] 92 % of control | dose: 200.0 mg/kg/injection, schedule: Q01DX009 (ip), vehicle: Klucel (hydroxypropylcellulose) (HPC) 90 % of control | dose: 400.0 mg/kg/injection, schedule: Q01DX009 (ip), vehicle: Klucel (hydroxypropylcellulose) (HPC) 96 % of control

CN(C)CCC(CN=C(N)N)c1cccc2ccccc12 (centres undefined)
inactive: dose: 12.5 mg/kg/injection, schedule: Q01DX009 (ip), vehicle: saline 100 % of control | dose: 25.0 mg/kg/injection, schedule: Q01DX009 (ip), vehicle: saline 100 % of control | dose: 25.0 mg/kg/injection, schedule: Q04DX002 (ip), vehicle: saline 93 % of control | dose: 50.0 mg/kg/injection, schedule: Q01DX009 (ip), vehicle: saline 101 % of control | dose: 50.0 mg/kg/injection, schedule: Q04DX002 (ip), vehicle: saline 97 % of control

Cc1nc(C)c(C(=O)O)cc1C(=O)O
inactive: dose: 100.0 mg/kg/injection, schedule: Q01DX009 (ip), vehicle: saline 104 % of control | dose: 200.0 mg/kg/injection, schedule: Q01DX009 (ip), vehicle: saline 101 % of control | dose: 400.0 mg/kg/injection, schedule: Q01DX009 (ip), vehicle: saline 100 % of control

CC(=O)Nc1nc(C(=O)O)c(CCCCc2ccccc2)c(=O)[nH]1
inactive: [3] 95 % of control | [4] 98 % of control | [5] 101 % of control

c1ccc(-c2cc(-c3ccccc3)c(-c3ccccc3)o2)cc1
inactive: dose: 50.0 mg/kg/injection, schedule: Q01DX001 (ip), vehicle: Klucel (hydroxypropylcellulose) (HPC) 92 % of control | [3] 100 % of control | [4] 92 % of control

C[P+](Cc1ccccc1)(c1ccccc1)c1ccccc1
inactive: dose: 1.25 mg/kg/injection, schedule: Q01DX001 (ip), vehicle: other 101 % of control | dose: 2.5 mg/kg/injection, schedule: Q01DX001 (ip), vehicle: other 94 % of control | dose: 5.0 mg/kg/injection, schedule: Q01DX001 (ip), vehicle: other 98 % of control

c1n[nH]c2c1CCCC2
inactive: [7] 89 % of control | [8] 98 % of control | dose: 100.0 mg/kg/injection, schedule: Q04DX002 (ip), vehicle: saline with Tween-80 97 % of control and 91 % of control | dose: 100.0 mg/kg/injection, schedule: Q04DX003 (ip), vehicle: saline with Tween-80 96 % of control and 104 % of control | [9] 86 % of control | [10] 98 % of control | dose: 200.0 mg/kg/injection, schedule: Q04DX002 (ip), vehicle: saline with Tween-80 94 % of control and 92 % of control | dose: 200.0 mg/kg/injection, schedule: Q04DX003 (ip), vehicle: saline with Tween-80 98 % of control and 108 % of control | dose: 400.0 mg/kg/injection, schedule: Q04DX002 (ip), vehicle: saline with Tween-80 94 % of control | dose: 400.0 mg/kg/injection, schedule: Q04DX003 (ip), vehicle: saline with Tween-80 100 % of control and 92 % of control

Oc1ccc(N=Cc2ccccn2)cc1
inactive: dose: 100.0 mg/kg/injection, schedule: Q01DX001 (ip), vehicle: carboxymethylcellulose (CMC) 96 % of control | dose: 200.0 mg/kg/injection, schedule: Q01DX001 (ip), vehicle: carboxymethylcellulose (CMC) 105 % of control | dose: 400.0 mg/kg/injection, schedule: Q01DX001 (ip), vehicle: carboxymethylcellulose (CMC) 98 % of control

Cc1ccc(S(=O)(=O)N(CC(=O)O)Cc2ccccc2)cc1
inactive: dose: 25.0 mg/kg/injection, schedule: Q01DX009 (ip), vehicle: sodium bicarbonate 104 % of control | dose: 50.0 mg/kg/injection, schedule: Q01DX009 (ip), vehicle: sodium bicarbonate 100 % of control | [7] 100 % of control | [8] 104 % of control | dose: 100.0 mg/kg/injection, schedule: Q01DX009 (ip), vehicle: sodium bicarbonate 98 % of control | [9] 97 % of control | [10] 110 % of control | dose: 200.0 mg/kg/injection, schedule: Q01DX009 (ip), vehicle: sodium bicarbonate 98 % of control | dose: 400.0 mg/kg/injection, schedule: Q01DX001 (ip), vehicle: saline with Tween-80 95 % of control | dose: 400.0 mg/kg/injection, schedule: Q01DX009 (ip), vehicle: saline with Tween-80 95 % of control and 112 % of control | dose: 400.0 mg/kg/injection, schedule: Q01DX009 (ip), vehicle: sodium bicarbonate 97 % of control | dose: 800.0 mg/kg/injection, schedule: Q01DX009 (ip), vehicle: saline with Tween-80 92 % of control | dose: 1600.0 mg/kg/injection, schedule: Q01DX009 (ip), vehicle: saline with Tween-80 117 % of control

N/N=C/c1cc2ccccc2c2ccccc12
inactive: dose: 100.0 mg/kg/injection, schedule: Q04DX002 (ip), vehicle: Klucel (hydroxypropylcellulose) (HPC) 97 % of control | dose: 200.0 mg/kg/injection, schedule: Q04DX002 (ip), vehicle: Klucel (hydroxypropylcellulose) (HPC) 91 % of control | dose: 400.0 mg/kg/injection, schedule: Q04DX002 (ip), vehicle: Klucel (hydroxypropylcellulose) (HPC) 87 % of control

Cc1nc(N(C)C)c2cnn(-c3ccccc3)c2n1
inactive: dose: 50.0 mg/kg/injection, schedule: Q01DX009 (ip), vehicle: saline with Tween-80 106 % of control | dose: 100.0 mg/kg/injection, schedule: Q01DX001 (ip), vehicle: acetone 101 % of control | [8] 87 % of control | dose: 200.0 mg/kg/injection, schedule: Q01DX001 (ip), vehicle: acetone 97 % of control

O=[N+]([O-])c1ccc(S(=O)[O-])cc1.O=[N+]([O-])c1ccc(S(=O)[O-])cc1.[Zn+2]
inactive: dose: 75.0 mg/kg/injection, schedule: Q01DX001 (ip), vehicle: saline 102 % of control | dose: 150.0 mg/kg/injection, schedule: Q01DX001 (ip), vehicle: saline 110 % of control

CC(OCCO)C1CCC2C3CCC4=CC(=O)CCC4(C)C3C(O)C(C)C12C (centres undefined)
inactive: dose: 50.0 mg/kg/injection, schedule: Q01DX001 (sc), vehicle: steriod suspending solution 102 % of control | dose: 100.0 mg/kg/injection, schedule: Q01DX001 (sc), vehicle: steriod suspending solution 100 % of control | dose: 200.0 mg/kg/injection, schedule: Q01DX001 (sc), vehicle: steriod suspending solution 110 % of control | dose: 400.0 mg/kg/injection, schedule: Q01DX001 (sc), vehicle: steriod suspending solution 102 % of control

NC(=O)CC1=NCCc2ccccc21
inactive: [1] 108 % of control | [2] 108 % of control

CC(=O)Nc1ccc(OC(=O)Nc2c(C)cccc2Cl)cc1
inactive: dose: 25.0 mg/kg/injection, schedule: Q01DX009 (ip), vehicle: Klucel (hydroxypropylcellulose) (HPC) 101 % of control | dose: 50.0 mg/kg/injection, schedule: Q01DX009 (ip), vehicle: Klucel (hydroxypropylcellulose) (HPC) 95 % of control | [6] 94 % of control and 101 % of control
